Measurements reported in the supplement of paper PMC11451515.

Key:
Conditions in all cases: 48 h
[1] = tested on: NOMO1; experiment: cell viability relative to DMSO control; higher = less cytotoxic
Summary of the method: (§1)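 Library compounds in DMSO were pin-dosed into 1536-well plates (5 μl) holding NOMO1 or SEM (500 cells/well) or P12-Ichikawa (1000 cells/well) leukemia cells, across an 11-point threefold series of 47 μM to 0.79 nM. Each cell line had been adapted for at least four passages in each medium. CellTiter-Glo One luminescence was read after 48 h at 37°C. Viability is the per-plate percentage relative to DMSO wells, with cell-free wells as background.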

[2] = tested on: P12-Ichikawa; experiment: as above
Summary of the method: as §1

[3] = tested on: SEM cells; experiment: as above
Summary of the method: as §1

[4] = tested on: NOMO1; experiment: AUC of viability dose-response curve (% viability x log10 dose units); higher = less sensitive
Summary of the method: (§2)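 Area under the curve was integrated by trapezoidal rule from a log-logistic fit of normalised viability, with curves exceeding full viability scaled and quality-control failures removed. The fit had four parameters over log10 doses. Viability came from CellTiter-Glo One luminescence, normalised per plate to DMSO and cell-free wells, after leukemia cells adapted to each medium (500 or 1000 cells/well, 1536-well plates) were exposed to library compounds in DMSO for 48 h at 37°C. The 11 threefold doses ran from 47 μM to 0.79 nM.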

[5] = tested on: P12-Ichikawa; experiment: as above
Summary of the method: as §2

[6] = tested on: SEM cells; experiment: as above
Summary of the method: as §2

COC(=O)[C@@H]1[C@H]2C[C@H]3c4[nH]c5ccccc5c4CCN3C[C@@H]2CC[C@@H]1O
cell viability [%]
Conditions | [1] | [2] | [3]
HPLM + 10% dialyzed FBS, 0.000781 µM | 120 | 113 | 86.1
HPLM + 10% dialyzed FBS, 0.00234 µM | 127 | 118 | 90.4
HPLM + 10% dialyzed FBS, 0.00702 µM | 122 | 122 | 102
HPLM + 10% dialyzed FBS, 0.0211 µM | 131 | 116 | 110
HPLM + 10% dialyzed FBS, 0.0632 µM | 132 | 122 | 104
HPLM + 10% dialyzed FBS, 0.19 µM | 128 | 128 | 110
HPLM + 10% dialyzed FBS, 0.569 µM | 108 | 121 | 120
HPLM + 10% dialyzed FBS, 1.71 µM | 41.2 | 117 | 115
HPLM + 10% dialyzed FBS, 5.12 µM | 39.8 | 20.8 | 116
HPLM + 10% dialyzed FBS, 15.4 µM | 44.5 | 14.4 | 120
HPLM + 10% dialyzed FBS, 46.1 µM | 35.6 | 12.4 | 116
RPMI 5 mM glucose + 10% FBS, 0.000781 µM | – | – | 94.7
RPMI 5 mM glucose + 10% FBS, 0.00234 µM | – | – | 112
RPMI 5 mM glucose + 10% FBS, 0.00702 µM | – | – | 122
RPMI 5 mM glucose + 10% FBS, 0.0211 µM | – | – | 104
RPMI 5 mM glucose + 10% FBS, 0.0632 µM | – | – | 110
RPMI 5 mM glucose + 10% FBS, 0.19 µM | – | – | 110
RPMI 5 mM glucose + 10% FBS, 0.569 µM | – | – | 135
RPMI 5 mM glucose + 10% FBS, 1.71 µM | – | – | 119
RPMI 5 mM glucose + 10% FBS, 5.12 µM | – | – | 120
RPMI 5 mM glucose + 10% FBS, 15.4 µM | – | – | 128
RPMI 5 mM glucose + 10% FBS, 46.1 µM | – | – | 125
RPMI 5 mM glucose + 10% dialyzed FBS, 0.000781 µM | – | 103 | 98.6
RPMI 5 mM glucose + 10% dialyzed FBS, 0.00234 µM | – | 114 | 109
RPMI 5 mM glucose + 10% dialyzed FBS, 0.00702 µM | – | 114 | 108
RPMI 5 mM glucose + 10% dialyzed FBS, 0.0211 µM | – | 124 | 120
RPMI 5 mM glucose + 10% dialyzed FBS, 0.0632 µM | – | 111 | 125
RPMI 5 mM glucose + 10% dialyzed FBS, 0.19 µM | – | 124 | 124
RPMI 5 mM glucose + 10% dialyzed FBS, 0.569 µM | – | 127 | 119
RPMI 5 mM glucose + 10% dialyzed FBS, 1.71 µM | – | 128 | 133
RPMI 5 mM glucose + 10% dialyzed FBS, 5.12 µM | – | 70.6 | 130
RPMI 5 mM glucose + 10% dialyzed FBS, 15.4 µM | – | 32.9 | 133
RPMI 5 mM glucose + 10% dialyzed FBS, 46.1 µM | – | 17.9 | 118

AUC of viability dose-response curve
Conditions | [4] | [5] | [6]
HPLM + 10% dialyzed FBS | 356 | 373 | 440
RPMI 5 mM glucose + 10% FBS | 325 | 378 | 441
RPMI 5 mM glucose + 10% dialyzed FBS | 350 | 402 | 451

CNc1nccc(-c2cccnc2Oc2cc(C(=O)Nc3cccc(C(F)(F)F)c3)ccc2C)n1
cell viability [%]
Conditions | [1] | [2] | [3]
HPLM + 10% dialyzed FBS, 0.000781 µM | 104 | 105 | 97.2
HPLM + 10% dialyzed FBS, 0.00234 µM | 111 | 111 | 101
HPLM + 10% dialyzed FBS, 0.00702 µM | 120 | 111 | 115
HPLM + 10% dialyzed FBS, 0.0211 µM | 135 | 113 | 113
HPLM + 10% dialyzed FBS, 0.0632 µM | 130 | 106 | 118
HPLM + 10% dialyzed FBS, 0.19 µM | 147 | 122 | 104
HPLM + 10% dialyzed FBS, 0.569 µM | 127 | 118 | 122
HPLM + 10% dialyzed FBS, 1.71 µM | 117 | 123 | 113
HPLM + 10% dialyzed FBS, 5.12 µM | 115 | 117 | 109
HPLM + 10% dialyzed FBS, 15.4 µM | 82.7 | 91 | 90.2
HPLM + 10% dialyzed FBS, 46.1 µM | 110 | 105 | 97.8
RPMI 5 mM glucose + 10% FBS, 0.000781 µM | 115 | 112 | 106
RPMI 5 mM glucose + 10% FBS, 0.00234 µM | 102 | 113 | 92.6
RPMI 5 mM glucose + 10% FBS, 0.00702 µM | 112 | 112 | 99.8
RPMI 5 mM glucose + 10% FBS, 0.0211 µM | 125 | 119 | 103
RPMI 5 mM glucose + 10% FBS, 0.0632 µM | 120 | 119 | 111
RPMI 5 mM glucose + 10% FBS, 0.19 µM | 133 | 121 | 103
RPMI 5 mM glucose + 10% FBS, 0.569 µM | 130 | 115 | 113
RPMI 5 mM glucose + 10% FBS, 1.71 µM | 119 | 127 | 97.4
RPMI 5 mM glucose + 10% FBS, 5.12 µM | 112 | 119 | 95.9
RPMI 5 mM glucose + 10% FBS, 15.4 µM | 87.7 | 82.8 | 72.4
RPMI 5 mM glucose + 10% FBS, 46.1 µM | 98.2 | 103 | 92.9
RPMI 5 mM glucose + 10% dialyzed FBS, 0.000781 µM | 98 | 105 | 95.8
RPMI 5 mM glucose + 10% dialyzed FBS, 0.00234 µM | 105 | 101 | 97.4
RPMI 5 mM glucose + 10% dialyzed FBS, 0.00702 µM | 108 | 104 | 103
RPMI 5 mM glucose + 10% dialyzed FBS, 0.0211 µM | 116 | 114 | 107
RPMI 5 mM glucose + 10% dialyzed FBS, 0.0632 µM | 108 | 112 | 119
RPMI 5 mM glucose + 10% dialyzed FBS, 0.19 µM | 134 | 110 | 125
RPMI 5 mM glucose + 10% dialyzed FBS, 0.569 µM | 105 | 112 | 103
RPMI 5 mM glucose + 10% dialyzed FBS, 1.71 µM | 125 | 120 | 107
RPMI 5 mM glucose + 10% dialyzed FBS, 5.12 µM | 125 | 111 | 97.9
RPMI 5 mM glucose + 10% dialyzed FBS, 15.4 µM | 78.2 | 90.7 | 82.9
RPMI 5 mM glucose + 10% dialyzed FBS, 46.1 µM | 99.1 | 103 | 97

AUC of viability dose-response curve
Conditions | [4] | [5] | [6]
HPLM + 10% dialyzed FBS | 458 | 467 | 466
RPMI 5 mM glucose + 10% FBS | 458 | 462 | 460
RPMI 5 mM glucose + 10% dialyzed FBS | 461 | 468 | 461
